Reference: US4977173A, “Aminomethyl oxooxazolidinyl ethenylbenzene derivatives useful as antibacterial agents” (E. I. Du Pont de Nemours and Company, priority 1989, dated 1990)
In brackets after ≈: the same amount, converted by molar mass. Like-named read-outs stand apart in the source and are kept apart here.

Legend:
Staphylococcus aureus [1] = assay: In vitro broth microdilution minimal inhibitory concentration (24-hour MIC), Staphylococcus aureus; type: cell-based; conditions: Mueller-Hinton broth, standard microdilution; for MIC: read-out: Minimum Inhibitory Concentration
Text: (§1) As shown in Table VII compounds of formula I exert an in vitro antibacterial effect.

Escherichia coli = assay: In vitro broth microdilution minimal inhibitory concentration (24-hour MIC), Escherichia coli; type: cell-based; conditions: Mueller-Hinton broth, standard microdilution; for MIC: read-out: Minimum Inhibitory Concentration
Text: as §1

Staphylococcus aureus [2] = assay: In vivo activity against Staphylococcus aureus in an acute lethal mouse model; conditions: mice infected intraperitoneally, dosed one and four hours post-infection, survival on seventh day
Procedure: Determinations of in vivo efficacy are performed by inoculating mice intraperitoneally with cultures of the infecting organism diluted to produce 100% mortality in control animals within twenty-four hours. The culture of S. aureus used to infect the animals was diluted to the required bacterial density using 5% aqueous hog gastric mucin. The compounds are dissolved or suspended in 0.25% aqueous Methocel® (Methocel®: Hydroxypropyl Methylcellulose, E15 Premium, Dow Chemical Company) for oral administration or sterile distilled water containing 5% dimethylsulfoxide (Fisher Scientific Company, Fairlawn, N.J.) for subcutaneous administration. The mice are dosed at one hour and at four hours post-infection. Mortality is recorded daily until test termination seven days post infection. The number of survivors in each treatment group on the seventh day after infection is used in the calculation of the ED50, the dose of compound that protects 50% of the mice (Litchfield, J. T. and Wildoxon. A simplified method for evaluating dose-effect experiments. J. Pharmacol Exp. Ther., 96:99-113, 1949).

[3] = Staphylococcus aureus, 168 h, Oral Administration, read-out: ED50
[4] = Staphylococcus aureus, sc, 168 h, Subcutaneous Administration, read-out: ED50
[5] = Subcutaneous Administration, 10080 min

Row | SMILES | MIC (Staphylococcus aureus [1]) [µg/mL] | MIC (Escherichia coli) [µg/mL] | ED50 (Staphylococcus aureus [2]; [3]) [mg/kg] | ED50 (Staphylococcus aureus [2]; [4]) [mg/kg] | Minimum Inhibitory Concentration (Staphylococcus aureus [1]) [µg/mL] | Minimum Inhibitory Concentration (Escherichia coli) [µg/mL] | ED50 (Staphylococcus aureus [2]; Oral Administration, 10080 min) [mg/kg] | ED50 (Staphylococcus aureus [2]; [5]) [mg/kg]
1 | CC(=O)NCC1CN(c2ccc(/C(=C/C#N)c3ccccc3)cc2)C(=O)O1 (racemic) [Example 5] | 32 (≈ 88.5 µM) | > 128 | > 90 | > 90 | – | – | – | –
2 | CC(=O)NC[C@H]1CN(c2ccc(/C(C)=C/C#N)cc2)C(=O)O1 [Example 1, (l)-N-[3-[4-(E-1-Methyl-2-cyanoethenyl)phenyl]-2-oxooxazolidin-5-ylmethyl]acetamide] | 1 (≈ 3.34 µM) | > 128 | 1.3 | 0.8 | – | – | – | –
3 | CC(=O)NC[C@H]1CN(c2ccc(/C=C/C#N)cc2)C(=O)O1 [Example 2, (l)-N-[3-[4-(E-2-Cyanoethenyl)phenyl]-2-oxooxazolidin-5-ylmethyl]acetamide] | 4 (≈ 14 µM) | > 128 | 3.5 | 2.8 | – | – | – | –
4 | CC(=O)NC[C@H]1CN(c2ccc(/C(C)=C/C#N)c(C)c2)C(=O)O1 [Example 3] | 2 (≈ 6.38 µM) | > 128 | 6.4 | 5.1 | – | – | – | –
5 | CC(=O)NC[C@H]1CN(c2ccc(/C(=C/C#N)c3ccc(F)cc3)cc2)C(=O)O1 [Example 6] | > 128 | > 128 | – | – | – | – | – | –
6 | CC/C(=C\C#N)c1ccc(N2C[C@H](CNC(C)=O)OC2=O)cc1 [Example 7] | 1 (≈ 3.19 µM) | > 128 | 3.1 | 2.1 | – | – | – | –
7 | CCC/C(=C\C#N)c1ccc(N2C[C@H](CNC(C)=O)OC2=O)cc1 [Example 8] | 2 (≈ 6.11 µM) | > 128 | > 90 | > 90 | – | – | – | –
8 | CC(=O)NC[C@H]1CN(c2ccc(/C(C)=C(\C)C#N)cc2)C(=O)O1 [Example 9] | 2 (≈ 6.38 µM) | > 128 | 3.8 | 2.5 | – | – | – | –
9 | CC(=O)NC[C@H]1CN(c2ccc(/C(C)=C(/C)C#N)cc2)C(=O)O1 [Example 11] | 8 (≈ 25.5 µM) | > 128 | – | – | – | – | – | –
10 | CC(=O)NC[C@H]1CN(c2ccc(/C=C(\C)C#N)cc2)C(=O)O1 [Example 12] | 1 (≈ 3.34 µM) | > 128 | 2.9 | 1.9 | – | – | – | –
11 | CC(=O)NC[C@H]1CN(c2ccc(/C(C)=C\C#N)cc2)C(=O)O1 [Example 13] | 8 (≈ 26.7 µM) | > 128 | – | – | – | – | – | –
12 | CC(=O)NC[C@H]1CN(c2ccc(/C=C/[N+](=O)[O-])cc2)C(=O)O1 [Example 19, (l)-N-[3-[4-(E-Nitroethenyl)phenyl]-2-oxooxazolidin-5-ylmethyl]acetamide] | 8 (≈ 26.2 µM) | > 128 | > 90 | > 90 | – | – | – | –
13 | CC(=O)NC[C@H]1CN(c2ccc(/C=C(\C)[N+](=O)[O-])cc2)C(=O)O1 [Example 20, (l)-N-[3-[4-(E-2-Nitro-2-methylethenyl)phenyl]-2-oxooxazolidin-5-ylmethyl]acetamide] | 0.1 (≈ 0.313 µM) | > 128 | 14.1 | 9.1 | – | – | – | –
14 | CSC(C#N)=Cc1ccc(N2CC(CNC(C)=O)OC2=O)cc1 (centres unmarked) [Example 21, (l)-N-[3-(4-(2-Cyano-2-methylsulfenylethenyl)phenyl]-2-oxooxazolidin-5-ylmethyl]acetamide] | – | – | – | – | 4 | > 128 | > 90 | 11.8
15 | CCOC(=O)/C=C/c1ccc(N2C[C@H](CNC(C)=O)OC2=O)cc1 [Example 22, (l)-N-[3-[4-(E-2-Carboethoxyethenyl)-phenyl]-2-oxooxazolidin-5-ylmethyl]acetamide] | 8 (≈ 24.1 µM) | > 128 | > 90 | > 90 | – | – | – | –
16 | CC(=O)NC[C@H]1CN(c2ccc(/C(C)=C/C(N)=O)cc2)C(=O)O1 [Example 23, (l)-N-[3-[4-(E-1-Methyl-2-carbamidoethenyl)phenyl]-2-oxooxazolidin-5-ylmethyl]acetamide] | 4 (≈ 12.6 µM) | > 128 | 26.4 | 36.2 | – | – | – | –
17 | CSC=Cc1ccc(N2CC(CNC(C)=O)OC2=O)cc1 (centres unmarked) [Example 24, (l)-N-[3-[4-(2-Methylsulfenylethenyl)-phenyl]-2-oxooxazolidin-5-ylmethyl]acetamide] | – | – | – | – | 8 | > 128 | 33.3 | 14.6
18 | CC(=O)NC[C@H]1CN(c2ccc(/C=C/C=O)cc2)C(=O)O1 [Example 25, (l)-N-[3-[4-(E-2-Formylethenyl)phenyl]-2-oxooxazolidin-5-ylmethyl]acetamide] | 0.5 (≈ 1.73 µM) | > 128 | > 80 | > 80 | – | – | – | –
19 | CC(=O)NC[C@H]1CN(c2ccc(C=C(C#N)C#N)cc2)C(=O)O1 [Example 26] | 16 (≈ 51.6 µM) | > 128 | > 90 | > 90 | – | – | – | –
20 | CC(=O)NC[C@H]1CN(c2ccc(C=C(C(C)=O)C(C)=O)cc2)C(=O)O1 [Example 28] | 16 (≈ 46.5 µM) | > 128 | > 90 | > 90 | – | – | – | –
21 | CC/C(=C\c1ccc(N2C[C@H](CNC(C)=O)OC2=O)cc1)[N+](=O)[O-] [Example 29] | 1 (≈ 3 µM) | > 128 | > 90 | > 90 | – | – | – | –
22 | CCC/C(=C\c1ccc(N2C[C@H](CNC(C)=O)OC2=O)cc1)[N+](=O)[O-] [Example 30] | 4 (≈ 11.5 µM) | > 128 | > 90 | > 90 | – | – | – | –
23 | COC(=O)/C=C(\C)c1ccc(N2C[C@H](CNC(C)=O)OC2=O)cc1 [Example 58, (l)-N-[3-[4-(E-1-Methyl-2-carbomethoxyethenyl)phenyl]-2-oxooxazolidin-5-ylmethyl]acetamide] | 2 (≈ 6.02 µM) | > 128 | – | 46.2 | – | – | – | –
24 | COC(=O)/C=C/c1ccc(N2C[C@H](CNC(C)=O)OC2=O)cc1 [Example 59] | 8 (≈ 25.1 µM) | > 128 | – | > 90 | – | – | – | –
25 | CC(=O)/C=C/c1ccc(N2C[C@H](CNC(C)=O)OC2=O)cc1 [Example 60] | 4 (≈ 13.2 µM) | > 128 | – | 51.9 | – | – | – | –
26 | CC(=O)NC[C@H]1CN(c2ccc(/C=C/C(=O)N(C)C)cc2)C(=O)O1 [Example 61] | 32 (≈ 96.6 µM) | > 128 | – | 39.5 | – | – | – | –
27 | CC(=O)NC[C@H]1CN(c2ccc(/C=C/C(N)=O)cc2)C(=O)O1 [Example 62] | 32 (≈ 105 µM) | > 128 | – | 20.4 | – | – | – | –
28 | CC(=O)NC[C@H]1CN(c2ccc(C3=CC(=O)CCC3)cc2)C(=O)O1 [Example 68] | 0.5 (≈ 1.52 µM) | > 128 | 2.4 | 1.7 | – | – | – | –
